From US10350187B2, “Methods and composition for suppression of pathogenic bacterial growth, fungal growth, or microbial growth in or on skin” (priority 2017, dated 2019)

Experiments:
M. globosa [1] = experiment: M. globosa growth on solid media with composition and individual component supplementation (Example 3); settings: individual component supplementation, after 5 days
M. restricta MYA-4611 [2] = experiment: M. restricta growth on solid media with composition and individual component supplementation (Example 3); settings: individual component supplementation, after 5 days
M. globosa [3] = experiment: M. globosa growth in liquid MLNB media (Example 3); assay type: cell-based
Experimental: (§1) At appropriate time intervals (0 h, 24 h, 48 h, 72 h, and 168 h) 1 mL aliquots of the cell suspension were withdrawn and plated on MLNA. All the experiments were performed in duplicate.

M. restricta MYA-4611 [4] = experiment: M. restricta growth in liquid MLNB media (Example 3); assay type: cell-based
Experimental: as §1

With conjugated linoleic acid [CLA] as the compound, how does the “growth on solid media” value (M. globosa [1]; 1.5% CLA) read?
The value was “support some growth”.

And the “growth on solid media” value (M. restricta MYA-4611 [2]; 1.5% CLA)?
The value was “support some growth”.

What about the “M. globosa growth in liquid MLNB media” value (M. globosa [3]; 1.5% CLA, t = 24 h) of the same compound?
The value was 2 cfu/mL.

And the “M. globosa growth in liquid MLNB media” value (M. globosa [3]; 1.5% CLA, t = 48 h)?
The value was 0 cfu/mL.

And the “M. globosa growth in liquid MLNB media” value (M. globosa [3]; 1.5% CLA, t = 72 h)?
The value was 0 cfu/mL.

What about the “M. globosa growth in liquid MLNB media” value (M. globosa [3]; 1.5% CLA, t = 168 h) of the same compound?
The value was 0 cfu/mL.

What about the “M. restricta growth in liquid MLNB media” value (M. restricta MYA-4611 [4]; 1.5% CLA, t = 24 h) of the same compound?
The value was 7 cfu/mL.

And the “M. restricta growth in liquid MLNB media” value (M. restricta MYA-4611 [4]; 1.5% CLA, t = 48 h)?
The value was 0 cfu/mL.

And the “M. restricta growth in liquid MLNB media” value (M. restricta MYA-4611 [4]; 1.5% CLA, t = 72 h)?
The value was 0 cfu/mL.

And the “M. restricta growth in liquid MLNB media” value (M. restricta MYA-4611 [4]; 1.5% CLA, t = 168 h)?
The value was 0 cfu/mL.

`NC(=O)c1cccnc1` [Niacinamide, niacinamide, reference compound] was tested. Which “growth on solid media” value (M. globosa [1]; 0.5% niacinamide) did it give?
Its value is “support some growth”.

And the “growth on solid media” value (M. restricta MYA-4611 [2]; 0.5% niacinamide)?
Its value is “support some growth”.

What about the “M. globosa growth in liquid MLNB media” value (M. globosa [3]; 0.5% Niacinamide, t = 24 h) of the same compound?
Its value is 2 cfu/mL.

What about the “M. globosa growth in liquid MLNB media” value (M. globosa [3]; 0.5% Niacinamide, t = 48 h) of the same compound?
Its value is 0 cfu/mL.

And the “M. globosa growth in liquid MLNB media” value (M. globosa [3]; 0.5% Niacinamide, t = 72 h)?
The value was 0 cfu/mL.

What about the “M. globosa growth in liquid MLNB media” value (M. globosa [3]; 0.5% Niacinamide, t = 168 h) of the same compound?
Its value is 0 cfu/mL.

What about the “M. restricta growth in liquid MLNB media” value (M. restricta MYA-4611 [4]; 0.5% Niacinamide, t = 24 h) of the same compound?
Its value is 20 cfu/mL.

What about the “M. restricta growth in liquid MLNB media” value (M. restricta MYA-4611 [4]; 0.5% Niacinamide, t = 48 h) of the same compound?
The value was 5 cfu/mL.

And the “M. restricta growth in liquid MLNB media” value (M. restricta MYA-4611 [4]; 0.5% Niacinamide, t = 72 h)?
The value was 0 cfu/mL.

And the “M. restricta growth in liquid MLNB media” value (M. restricta MYA-4611 [4]; 0.5% Niacinamide, t = 168 h)?
The value was 0 cfu/mL.

For `N[C@@H](CC(=O)O)C(=O)O` [L-Asp, L-aspartic acid], which “growth on solid media” value (M. globosa [1]; 0.46% L-Asp) is on record?
The value was “support some growth”.

What about the “growth on solid media” value (M. restricta MYA-4611 [2]; 0.46% L-Asp) of the same compound?
Its value is “support some growth”.

And the “M. globosa growth in liquid MLNB media” value (M. globosa [3]; 0.46% L-Asp, t = 24 h)?
The value was 14 cfu/mL.

What about the “M. globosa growth in liquid MLNB media” value (M. globosa [3]; 0.46% L-Asp, t = 48 h) of the same compound?
Its value is 10 cfu/mL.

And the “M. globosa growth in liquid MLNB media” value (M. globosa [3]; 0.46% L-Asp, t = 72 h)?
Its value is 6 cfu/mL.

And the “M. globosa growth in liquid MLNB media” value (M. globosa [3]; 0.46% L-Asp, t = 168 h)?
Its value is 1 cfu/mL.

What about the “M. restricta growth in liquid MLNB media” value (M. restricta MYA-4611 [4]; 0.46% L-Asp, t = 24 h) of the same compound?
Its value is 15 cfu/mL.

What about the “M. restricta growth in liquid MLNB media” value (M. restricta MYA-4611 [4]; 0.46% L-Asp, t = 48 h) of the same compound?
Its value is 11 cfu/mL.

And the “M. restricta growth in liquid MLNB media” value (M. restricta MYA-4611 [4]; 0.46% L-Asp, t = 72 h)?
Its value is 10 cfu/mL.

What about the “M. restricta growth in liquid MLNB media” value (M. restricta MYA-4611 [4]; 0.46% L-Asp, t = 168 h) of the same compound?
Its value is 14 cfu/mL.
